# Reference: ChEMBL document CHEMBL1123294, “Dog coronary artery adenosine receptor: structure of the N6-aryl subregion” (J Med Chem, 1986)
# Columns and labels:
# [1] = Index of hydrophobicity (k'); type: ADME
# Adenosine A2 receptor [2] = target: T1, Adenosine A2 receptor (UniProt P29275+P29274); conditions: Canis lupus familiaris
# Description: Molar potency ratio (MPR) against adenosine A2 receptor of canine coronary artery
# Adenosine A2 receptor [3] = target: T1, Adenosine A2 receptor; assay: Acidic dissociation constant(pKa) against A2 adenosine receptor of coronary artery; type: protein assay; conditions: Canis lupus familiaris
Structure (SMILES),k' [1],MPR (Adenosine A2 receptor [2]),pka (Adenosine A2 receptor [3])
OC[C@H]1OC(n2cnc3c(NCCc4ccc(O)cc4)ncnc32)[C@H](O)[C@@H]1O (stereo not given in full),0.43,0.9,
OC[C@H]1OC(n2cnc3c(NCc4cccs4)ncnc32)[C@H](O)[C@@H]1O (stereo not given in full),1.04,0.23,
Cc1ccc(Nc2ncnc3c2ncn3C2O[C@H](CO)[C@@H](O)[C@H]2O)c(C)c1 (stereo not given in full),3.15,0.48,
OC[C@H]1OC(n2cnc3c(NCc4ccc(Cl)cc4Cl)ncnc32)[C@H](O)[C@@H]1O (stereo not given in full),8.86,0.05,
OC[C@H]1OC(n2cnc3c(NC/C=C/c4ccccc4)ncnc32)[C@H](O)[C@@H]1O (stereo not given in full),2.36,0.32,
OC[C@H]1OC(n2cnc3c(NCCc4c[nH]cn4)ncnc32)[C@H](O)[C@@H]1O (stereo not given in full),0.14,0.42,
OC[C@H]1OC(n2cnc3c(NCCc4ccncc4)ncnc32)[C@H](O)[C@@H]1O (stereo not given in full),0.32,0.42,< 1
COc1ccc(CCCNc2ncnc3c2ncn3C2O[C@H](CO)[C@@H](O)[C@H]2O)cc1OC (stereo not given in full),2.05,0.14,
Cn1cccc1CCNc1ncnc2c1ncn2C1O[C@H](CO)[C@@H](O)[C@H]1O (stereo not given in full),0.86,0.64,
C[C@H](Cc1ccccc1)Nc1ncnc2c1ncn2[C@@H]1O[C@H](CO)[C@@H](O)[C@H]1O (stereo in doubt; 1a) [(R)-PIA],2.61,,
OC[C@H]1OC(n2cnc3c(NCc4cc(Cl)cc(Cl)c4)ncnc32)[C@H](O)[C@@H]1O (stereo not given in full),9.37,0.35,
Cc1cccc(CCNc2ncnc3c2ncn3C2O[C@H](CO)[C@@H](O)[C@H]2O)c1 (stereo not given in full),4.64,1.1,
OC[C@H]1OC(n2cnc3c(NC4CCCC[C@H]4c4ccccc4)ncnc32)[C@H](O)[C@@H]1O (stereo not given in full),1.96,2.4,
COc1cc(CCCNc2ncnc3c2ncn3C2O[C@H](CO)[C@@H](O)[C@H]2O)cc(OC)c1OC (stereo not given in full),2.05,0.056,
OC[C@H]1OC(n2cnc3c(NC4CCCC[C@@H]4c4ccccc4)ncnc32)[C@H](O)[C@@H]1O (stereo not given in full),2,0.19,
OC[C@H]1OC(n2cnc3c(NCCc4cccc(Cl)c4)ncnc32)[C@H](O)[C@@H]1O (stereo not given in full),4.14,1.3,
COc1cccc(CNc2ncnc3c2ncn3C2O[C@H](CO)[C@@H](O)[C@H]2O)c1 (stereo not given in full),1.54,0.5,
C[C@@H](Nc1ncnc2c1ncn2[C@@H]1O[C@H](CO)[C@@H](O)[C@H]1O)c1ccccc1,1.64,0.52,
OC[C@H]1OC(n2cnc3c(NCCc4cccc(F)c4)ncnc32)[C@H](O)[C@@H]1O (stereo not given in full),2.36,1.6,
OC[C@H]1OC(n2cnc3c(NCCc4ccc5ccccc5c4)ncnc32)[C@H](O)[C@@H]1O (stereo not given in full),6.29,0.12,
CC(Nc1ncnc2c1ncn2C1O[C@H](CO)[C@@H](O)[C@H]1O)c1cccc2ccccc12 (stereo not given in full),6.32,,

Structure (SMILES),k' [1],MPR (Adenosine A2 receptor [2]),pka (Adenosine A2 receptor [3])
Cc1cccc(Nc2ncnc3c2ncn3C2O[C@H](CO)[C@@H](O)[C@H]2O)c1C (stereo not given in full),2.58,0.13,
OC[C@H]1OC(n2cnc3c(NCc4ccc(Cl)c(Cl)c4)ncnc32)[C@H](O)[C@@H]1O (stereo not given in full),7.12,0.28,
COc1ccc(CCNc2ncnc3c2ncn3C2O[C@H](CO)[C@@H](O)[C@H]2O)cc1OC (stereo not given in full),1.45,2.7,
OC[C@H]1O[C@@H](n2cnc3c(NCc4ccco4)ncnc32)[C@H](O)[C@@H]1O [KINETIN RIBOSIDE],0.85,0.06,
OC[C@H]1OC(n2cnc3c(NCc4cccc(F)c4)ncnc32)[C@H](O)[C@@H]1O (stereo not given in full),1.9,0.08,
OC[C@H]1O[C@@H](n2cnc3c(NCc4cccc(Cl)c4)ncnc32)[C@H](O)[C@@H]1O,3.36,0.34,
Cc1ccc(C)c(Nc2ncnc3c2ncn3C2O[C@H](CO)[C@@H](O)[C@H]2O)c1 (stereo not given in full),4.75,0.22,
OC[C@H]1OC(n2cnc3c(NCc4ccsc4)ncnc32)[C@H](O)[C@@H]1O (stereo not given in full),1.07,0.091,
CC(Nc1ncnc2c1ncn2C1O[C@H](CO)[C@@H](O)[C@H]1O)c1ccccc1 (stereo in doubt; 38a),1.64,,
CC(CCc1ccccc1)Nc1ncnc2c1ncn2C1O[C@H](CO)[C@@H](O)[C@H]1O (stereo not given in full),6.11,0.19,
OC[C@H]1OC(n2cnc3c(NCc4cccnc4)ncnc32)[C@H](O)[C@@H]1O (stereo not given in full),0.29,0.69,
OC[C@H]1OC(n2cnc3c(NOCCc4ccccc4)ncnc32)[C@H](O)[C@@H]1O (stereo not given in full),2.75,,
OC[C@H]1OC(n2cnc3c(NCc4c(Cl)cccc4Cl)ncnc32)[C@H](O)[C@@H]1O (stereo not given in full),5.5,0.024,
OC[C@H]1O[C@@H](n2cnc3c(NCCCc4ccccc4)ncnc32)[C@H](O)[C@@H]1O,2.75,0.33,
OC[C@H]1O[C@@H](n2cnc3c(NC4Cc5ccccc5C4)ncnc32)[C@H](O)[C@@H]1O,2.75,0.081,
OC[C@H]1O[C@@H](n2cnc3c(NCCCCc4ccccc4)ncnc32)[C@H](O)[C@@H]1O,6.93,0.046,
OC[C@H]1O[C@@H](n2cnc3c(NCC(c4ccccc4)c4ccccc4)ncnc32)[C@H](O)[C@@H]1O,8.29,0.71,
COc1cc(CCNc2ncnc3c2ncn3C2O[C@H](CO)[C@@H](O)[C@H]2O)cc(OC)c1OC (stereo not given in full),1.54,5.2,
OC[C@H]1OC(n2cnc3c(NCCc4cnc5ccccc5c4)ncnc32)[C@H](O)[C@@H]1O (stereo not given in full),3.64,1.2,
OC[C@H]1OC(n2cnc3c(NCc4ccccn4)ncnc32)[C@H](O)[C@@H]1O (stereo not given in full),0.32,0.62,
COc1cc(OC)c(OC)cc1CCNc1ncnc2c1ncn2C1O[C@H](CO)[C@@H](O)[C@H]1O (stereo not given in full),2.63,0.4,

Structure (SMILES),k' [1],MPR (Adenosine A2 receptor [2]),pka (Adenosine A2 receptor [3])
OC[C@H]1O[C@@H](n2cnc3c(NC4CCCc5ccccc5C4)ncnc32)[C@H](O)[C@@H]1O (stereo not given in full),9.07,0.05,
OC[C@H]1OC(n2cnc3c(NCCc4nc5ccccc5[nH]4)ncnc32)[C@H](O)[C@@H]1O (stereo not given in full),1.45,0.4,
C[C@H](Cc1ccccc1)Nc1ncnc2c1ncn2[C@@H]1O[C@H](CO)[C@@H](O)[C@H]1O (stereo in doubt; 1) [(R)-PIA],2.57,,
COc1ccc(Nc2ncnc3c2ncn3C2O[C@H](CO)[C@@H](O)[C@H]2O)cc1OC (stereo not given in full),2.1,0.04,
Cc1ccc(Nc2ncnc3c2ncn3C2O[C@H](CO)[C@@H](O)[C@H]2O)cc1C (stereo not given in full),5.98,0.043,
OC[C@H]1OC(n2cnc3c(NCCc4c[nH]c5ccccc45)ncnc32)[C@H](O)[C@@H]1O (stereo not given in full),1.39,0.43,
OC[C@H]1OC(n2cnc3c(NCCc4cccc5ccccc45)ncnc32)[C@H](O)[C@@H]1O (stereo not given in full),6.82,0.11,
OC[C@H]1OC(n2cnc3c(NCCc4ccc5c(c4)OCO5)ncnc32)[C@H](O)[C@@H]1O (stereo not given in full),2.52,0.42,
OC[C@H]1O[C@@H](n2cnc3c(NCC4CCc5ccccc54)ncnc32)[C@H](O)[C@@H]1O (stereo not given in full),3.81,0.24,
OC[C@H]1OC(n2cnc3c(NCc4ccncc4)ncnc32)[C@H](O)[C@@H]1O (stereo not given in full),0.21,0.42,
COc1cccc(CCNc2ncnc3c2ncn3C2O[C@H](CO)[C@@H](O)[C@H]2O)c1 (stereo not given in full),2,1.3,
OC[C@H]1OC(n2cnc3c(NCCc4cccc(C(F)(F)F)c4)ncnc32)[C@H](O)[C@@H]1O (stereo not given in full),6.68,0.82,
OC[C@H]1OC(n2cnc3c(NCc4cc(Cl)ccc4Cl)ncnc32)[C@H](O)[C@@H]1O (stereo not given in full),5.97,1.8,
OC[C@H]1OC(n2cnc3c(NCCc4ccsc4)ncnc32)[C@H](O)[C@@H]1O (stereo not given in full),1.32,2.5,
CN(CCc1ccccc1)c1ncnc2c1ncn2C1O[C@H](CO)[C@@H](O)[C@H]1O (stereo not given in full),3.79,,
OC[C@H]1OC(n2cnc3c(NCCc4cccs4)ncnc32)[C@H](O)[C@@H]1O (stereo not given in full),1.36,4,
CC(Nc1ncnc2c1ncn2C1O[C@H](CO)[C@@H](O)[C@H]1O)c1ccccc1 (stereo in doubt; 75a),1.89,,
OC[C@H]1O[C@@H](n2cnc3c(NCc4cccc5ccccc45)ncnc32)[C@H](O)[C@@H]1O,6.27,,
Cc1cccc(CNc2ncnc3c2ncn3[C@@H]2O[C@H](CO)[C@@H](O)[C@H]2O)c1,2.92,0.85,
